Results as given in publication PMC11162475, “Rule-based omics mining reveals antimicrobial macrocyclic peptides against drug-resistant clinical isolates” (Nature Communications, 2024).

How the values were obtained:
[1] = system: ICR mice; assay: Mouse acute toxicity test; type: in vivo
Protocol: Massatide A was dissolved in saline to the required concentration for the experiments. Six-week-old specific pathogen-free male ICR mice weighing 18–20 g were randomly divided into 4 groups (4 per group) and administered in a single intraperitoneal injection. Group 1 animals received 0.9% saline only, while groups 2–4 were given massatide A at 10, 30, and 50 mg/kg, respectively. The animals were continuously observed for general behavioral changes for 5 days and survival rate was recorded.

[2] = system: Pseudomonas aeruginosa PAO1; type: cell-based; conditions: PAO1, 20 h
Protocol: (§1) For MIC determination, Staphylococcus aureus ATCC25923, Bacillus subtilis 168, Micrococcus luteus DSM1790, Enterococcus faecalis OG1RF, Enterococcus faecium MCC2763, Escherichia coli DH5α and Pseudomonas aeruginosa PAO1 were used as indicator strains. Nisin and vancomycin were used as positive controls. A dilution series of massatide A, massatide B, vancomycin (16, 8, 4, 2, 1, 0.5, 0.25, 0.125, 0.0625, 0.0313 μg/mL) and sistertide A1, kebanetide A1, kebanetide A2, nisin (64, 32, 16, 8, 4, 2, 1, 0.5, 0.25, 0.125 μg/mL) were prepared in 96-well plate from 1–10th column. The indicator strains were added to the compound-containing well. The indicator strain culture with no antibiotics was prepared in the 11th column. The 12th column was filled with 200 μL empty MHB medium. The 96-well plate was incubated at 37 °C for 20 h (30 °C for M. luteus and B. subtilis). The OD600 was detected on MULTISKAN Sky (Thermo Scientific) and MIC values were determined. The MIC values of clinical isolates were determined by Sichuan Primed Shines Bio-tech Co., Ltd. (China) following similar protocol. Levofloxacin was used as a positive control.

[3] = system: Escherichia coli DH5α; type: cell-based; conditions: DH5α, 20 h
Protocol: as §1

[4] = system: MRSA ATCC43300; assay: Mouse septicaemia model; type: in vivo; conditions: for number of new dead mouse: infection controlled in mouse; for survival rate of mice: 5 per group
Protocol: Briefly, 6-week-old specific pathogen-free male ICR mice weighing 18–20 g were randomly divided into 4 groups (5 per group). Each mouse received an intraperitoneal injection on the left side of the abdomen with 0.4 ml, 1.8 ×10^10 c.f.u./mL MRSA ATCC43300 suspended in saline containing 5% yeast in each mouse. One hour after infection, the mice were injected intraperitoneally with saline (negative control), massatide A dissolved in saline at 10 mg/kg, 30 mg/kg and 50 mg/kg (experimental groups). […] We injected 0.4 ml solution to each mouse. Animal deaths were recorded for 7 days, and the survival rates were calculated to generate the mouse survival curve.

[5] = system: chymotrypsin; conditions: 32 μg/mL in H2O, protease 100:1 (w:w), 37 °C, 4 h, 8 h and 12 h, UPLC-LRMS
Protocol: Protease stability of massatide A
We selected TEV protease, Endoproteinase AspN, Endoproteinase GluC, trypsin, and chymotrypsin to evaluate the stability of massatide A. The protease digestion assay was conducted as follows: (i) Stock solution of massatide A (3.2 mg/mL in DMSO) was diluted in H2O with final concentration of 32 μg/mL, (ii) each protease was added with 100:1 (w:w) ratio and incubated under corresponding temperature, i.e., 37 °C for TEV protease, trypsin, and chymotrypsin and 30 °C for Endoproteinase AspN and […]
Endoproteinase GluC. […]
1 μ L samples were taken and diluted with water for UPLC -LRMS analysis. […]

[6] = system: S. aureus ATCC 25923; assay: Time-dependent killing assay; type: cell-based, Staphylococcus aureus; conditions: for log(CFU/mL) / CFU/mL: time-killing assay
Protocol: Time-dependent killing assay
An overnight culture of S. aureus ATCC 25923 cells was diluted at 1:10,000 in MHB medium and incubated at 37 ℃, 200 rpm for 2 hours to reach the early exponential.
Then, massatide A or vancomycin was added to the culture at the concentration of 10×MIC. Bacteria were still cultivated at 37 ℃, 200 rpm. Culture with no antibiotics was used as a negative control. 10 μL aliquots were removed at intervals, centrifuged, and resuspended in 1 ml PBS. Serially diluted (10-fold) suspensions were plated on MHB agar and incubated at 37 ℃ overnight for counting of colony-forming units.
Experiments were performed in triplicate. […]

C/C=C1\NC(=O)C(N(C)C)C(C)SC[C@@H](C(=O)N[C@H](CC)C(=O)N[C@H](C(=O)N[C@@H](C)C(=O)N[C@H](C)C(=O)N[C@@H](Cc2ccccc2)C(=O)N[C@@H](C)C(=O)NC2C(=O)NCC(=O)N[C@@H](Cc3ccc(O)cc3)C(=O)N[C@@H](Cc3ccccc3)C(=O)N[C@H](C)C(=O)N/C=C\SC2C)C(C)C)NC(=O)[C@@H]2CCCN2C(=O)[C@H](C(C)C)NC1=O (some centres unmarked) [Massatide A (1), massatide A]
number of new dead mouse ([1]; 10 mg/kg i.p., day 1, 4 mice per group): 0 | number of new dead mouse ([1]; 10 mg/kg i.p., day 2, 4 mice per group): 0 | number of new dead mouse ([1]; 10 mg/kg i.p., day 3, 4 mice per group): 0 | number of new dead mouse ([1]; 10 mg/kg i.p., day 5, 4 mice per group): 0 | number of new dead mouse ([1]; 30 mg/kg i.p., day 1, 4 mice per group): 0 | number of new dead mouse ([1]; 30 mg/kg i.p., day 2, 4 mice per group): 0 | number of new dead mouse ([1]; 30 mg/kg i.p., day 3, 4 mice per group): 0 | number of new dead mouse ([1]; 30 mg/kg i.p., day 5, 4 mice per group): 0 | number of new dead mouse ([1]; 50 mg/kg i.p., day 1, 4 mice per group): 0 | number of new dead mouse ([1]; 50 mg/kg i.p., day 2, 4 mice per group): 0 | number of new dead mouse ([1]; 50 mg/kg i.p., day 3, 4 mice per group): 0 | number of new dead mouse ([1]; 50 mg/kg i.p., day 5, 4 mice per group): 0 | survival / signs of acute toxicity ([1]; male ICR mice, single intraperitoneal injection, 10-50 mg/kg, 5 days, 4 per group): all treated mice survived without any signs of acute toxicity | MIC [2]: >128 µg/mL | MIC [3]: >128 µg/mL | number of new dead mouse ([4]; 10mg/kg, time 2.29 day): 1 | number of new dead mouse ([4]; 10mg/kg, time 3 day): 0 | number of new dead mouse ([4]; 10mg/kg, time 4 day): 0 | number of new dead mouse ([4]; 10mg/kg, time 6 day): 0 | number of new dead mouse ([4]; 10mg/kg, time 7 day): 0 | number of new dead mouse ([4]; 30mg/kg, time 2.29 day): 1 | number of new dead mouse ([4]; 30mg/kg, time 3 day): 0 | number of new dead mouse ([4]; 30mg/kg, time 4 day): 0 | number of new dead mouse ([4]; 30mg/kg, time 6 day): 0 | number of new dead mouse ([4]; 30mg/kg, time 7 day): 0 | number of new dead mouse ([4]; 50mg/kg, time 2.29 day): 0 | number of new dead mouse ([4]; 50mg/kg, time 3 day): 0 | number of new dead mouse ([4]; 50mg/kg, time 4 day): 0 | number of new dead mouse ([4]; 50mg/kg, time 6 day): 0 | number of new dead mouse ([4]; 50mg/kg, time 7 day): 0 | survival rate of mice ([4]; single dose 10 mg/kg i.p. 1 h after i.p. infection with 7.2 × 10^9 c.f.u. MRSA ATCC43300, 7 days): 80% | survival rate of mice ([4]; single dose 50 mg/kg i.p. 1 h after i.p. infection with 7.2 × 10^9 c.f.u. MRSA ATCC43300, 7 days): 100% | protease stability [5]: resistant | time-dependent killing, mode of killing ([6]; S. aureus, early exponential phase, 10×MIC, 37 °C, c.f.u. counting, triplicate): bactericidal | log(CFU/mL) ([6]; time 0 h, log of mean of 3 replicates): 6.553 log(CFU/mL) | CFU/mL ([6]; time 0 h, mean of 3 replicates): 3576667 CFU/mL | CFU/mL ([6]; time 0 h, replicate 1): 2840000 CFU/mL | log(CFU/mL) ([6]; time 0 h, replicate 1): 6.453 log(CFU/mL) | CFU/mL ([6]; time 0 h, replicate 2): 4020000 CFU/mL | log(CFU/mL) ([6]; time 0 h, replicate 2): 6.604 log(CFU/mL) | CFU/mL ([6]; time 0 h, replicate 3): 3870000 CFU/mL | log(CFU/mL) ([6]; time 0 h, replicate 3): 6.588 log(CFU/mL) | log(CFU/mL) ([6]; time 1 h, log of mean of 3 replicates): 4.699 log(CFU/mL) | CFU/mL ([6]; time 1 h, mean of 3 replicates): 50000 CFU/mL | CFU/mL ([6]; time 1 h, replicate 1): 70000 CFU/mL | log(CFU/mL) ([6]; time 1 h, replicate 1): 4.8451 log(CFU/mL) | CFU/mL ([6]; time 1 h, replicate 2): 50000 CFU/mL | log(CFU/mL) ([6]; time 1 h, replicate 2): 4.699 log(CFU/mL) | CFU/mL ([6]; time 1 h, replicate 3): 30000 CFU/mL | log(CFU/mL) ([6]; time 1 h, replicate 3): 4.477 log(CFU/mL) | log(CFU/mL) ([6]; time 3 h, log of mean of 3 replicates): 4.176 log(CFU/mL) | CFU/mL ([6]; time 3 h, mean of 3 replicates): 15000 CFU/mL | CFU/mL ([6]; time 3 h, replicate 1): 10000 CFU/mL | log(CFU/mL) ([6]; time 3 h, replicate 1): 4 log(CFU/mL) | CFU/mL ([6]; time 3 h, replicate 2): 20000 CFU/mL | log(CFU/mL) ([6]; time 3 h, replicate 2): 4.301 log(CFU/mL) | CFU/mL ([6]; time 3 h, replicate 3): 15000 CFU/mL | log(CFU/mL) ([6]; time 3 h, replicate 3): 4.176 log(CFU/mL) | log(CFU/mL) ([6]; time 7 h, log of mean of 3 replicates): 3.921 log(CFU/mL) | CFU/mL ([6]; time 7 h, mean of 3 replicates): 8333.33 CFU/mL | CFU/mL ([6]; time 7 h, replicate 1): 5000 CFU/mL | log(CFU/mL) ([6]; time 7 h, replicate 1): 3.699 log(CFU/mL) | CFU/mL ([6]; time 7 h, replicate 2): 10000 CFU/mL | log(CFU/mL) ([6]; time 7 h, replicate 2): 4 log(CFU/mL) | CFU/mL ([6]; time 7 h, replicate 3): 10000 CFU/mL | log(CFU/mL) ([6]; time 7 h, replicate 3): 4 log(CFU/mL) | log(CFU/mL) ([6]; time 26 h, log of mean of 3 replicates): 2.049 log(CFU/mL) | CFU/mL ([6]; time 26 h, mean of 3 replicates): 112 CFU/mL | CFU/mL ([6]; time 26 h, replicate 1): 70 CFU/mL | log(CFU/mL) ([6]; time 26 h, replicate 1): 1.8451 log(CFU/mL) | CFU/mL ([6]; time 26 h, replicate 2): 120 CFU/mL | log(CFU/mL) ([6]; time 26 h, replicate 2): 2.079 log(CFU/mL) | CFU/mL ([6]; time 26 h, replicate 3): 146 CFU/mL | log(CFU/mL) ([6]; time 26 h, replicate 3): 2.164 log(CFU/mL)
